Test results reported in patent US8192962B2, “Processes for detecting toxic substances” (Daikin Industries, Ltd., priority 2001, dated 2012).

System: Metabolism protein genes
Assay: DNA chip mRNA expression in yeast, metabolism protein genes (Table 7)
Format: cell-based, Saccharomyces cerevisiae S288C
Method in brief: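 Chemical exposure: 2 h, log-phase S. cerevisiae S288C, YPD, 25° C., dose set to inhibit growth without death. Profiling: mRNA labeled by reverse transcription with Cy3- or Cy5-dUTP, hybridized to whole-genome array. Output: fluorescence ratio against untreated culture.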

CN(C)C(=S)SSC(=S)N(C)C [(10), Tetramethylthiuram disulfide]
The level of expressed mRNA in the presence of chemical substance/The level of expressed mRNA in the absence of chemical substance (yeast gene YAL012W): 3.9
The level of expressed mRNA in the presence of chemical substance/The level of expressed mRNA in the absence of chemical substance (yeast gene YAL038W): 1.1
The level of expressed mRNA in the presence of chemical substance/The level of expressed mRNA in the absence of chemical substance (yeast gene YAL044C): 0.6
The level of expressed mRNA in the presence of chemical substance/The level of expressed mRNA in the absence of chemical substance (yeast gene YAL054C): 4.1
The level of expressed mRNA in the presence of chemical substance/The level of expressed mRNA in the absence of chemical substance (yeast gene YAR071W): 0.3
The level of expressed mRNA in the presence of chemical substance/The level of expressed mRNA in the absence of chemical substance (yeast gene YBL001C): 0.9
level of expressed mRNA in the presence/in the absence of chemical substance (yeast gene YBR003W): 1.3
level of expressed mRNA in the presence/in the absence of chemical substance (yeast gene YBR011C): 1.0
The level of expressed mRNA in the presence of chemical substance/The level of expressed mRNA in the absence of chemical substance (yeast gene YBR014C): 0.8
level of expressed mRNA in the presence/in the absence of chemical substance (yeast gene YBR020W): 1.1
The level of expressed mRNA in the presence of chemical substance/The level of expressed mRNA in the absence of chemical substance (yeast gene YBR023C): 0.4
The level of expressed mRNA in the presence of chemical substance/The level of expressed mRNA in the absence of chemical substance (yeast gene YBR029C): 1.1
The level of expressed mRNA in the presence of chemical substance/The level of expressed mRNA in the absence of chemical substance (yeast gene YBR035C): 1.5
The level of expressed mRNA in the presence of chemical substance/The level of expressed mRNA in the absence of chemical substance (yeast gene YBR068C): 2.5
The level of expressed mRNA in the presence of chemical substance/The level of expressed mRNA in the absence of chemical substance (yeast gene YBR111C): 1.9
The level of expressed mRNA in the presence of chemical substance/The level of expressed mRNA in the absence of chemical substance (yeast gene YBR183W): 2.0
The level of expressed mRNA in the presence of chemical substance/The level of expressed mRNA in the absence of chemical substance (yeast gene YBR222C): 1.0
The level of expressed mRNA in the presence of chemical substance/The level of expressed mRNA in the absence of chemical substance (yeast gene YBR256C): 6.8
The level of expressed mRNA in the presence of chemical substance/The level of expressed mRNA in the absence of chemical substance (yeast gene YBR296C): 1.8
The level of expressed mRNA in the presence of chemical substance/The level of expressed mRNA in the absence of chemical substance (yeast gene YCL009C): 1.6
The level of expressed mRNA in the presence of chemical substance/The level of expressed mRNA in the absence of chemical substance (yeast gene YCL064C): 5.2
level of expressed mRNA in the presence/in the absence of chemical substance (yeast gene YCR010C): 4.7
level of expressed mRNA in the presence/in the absence of chemical substance (yeast gene YCR034W): 0.2
The level of expressed mRNA in the presence of chemical substance/The level of expressed mRNA in the absence of chemical substance (yeast gene YCR048W): 0.5
The level of expressed mRNA in the presence of chemical substance/The level of expressed mRNA in the absence of chemical substance (yeast gene YCR098C): 2.4
The level of expressed mRNA in the presence of chemical substance/The level of expressed mRNA in the absence of chemical substance (yeast gene YDR019C): 0.7
level of expressed mRNA in the presence/in the absence of chemical substance (yeast gene YDR050C): 1.3
level of expressed mRNA in the presence/in the absence of chemical substance (yeast gene YDR073W): 1.2
level of expressed mRNA in the presence/in the absence of chemical substance (yeast gene YDR123C): 0.6
level of expressed mRNA in the presence/in the absence of chemical substance (yeast gene YDR178W): 0.8
level of expressed mRNA in the presence/in the absence of chemical substance (yeast gene YDR277C): 0.9
level of expressed mRNA in the presence/in the absence of chemical substance (yeast gene YDR284C): 1.0
level of expressed mRNA in the presence/in the absence of chemical substance (yeast gene YDR345C): 1.1
The level of expressed mRNA in the presence of chemical substance/The level of expressed mRNA in the absence of chemical substance (yeast gene YDR380W): 0.3
level of expressed mRNA in the presence/in the absence of chemical substance (yeast gene YDR400W): 1.4
level of expressed mRNA in the presence/in the absence of chemical substance (yeast gene YDR408C): 0.5
level of expressed mRNA in the presence/in the absence of chemical substance (yeast gene YDR483W): 1.1
The level of expressed mRNA in the presence of chemical substance/The level of expressed mRNA in the absence of chemical substance (yeast gene YDR497C): 0.8
The level of expressed mRNA in the presence of chemical substance/The level of expressed mRNA in the absence of chemical substance (yeast gene YDR502C): 0.9
The level of expressed mRNA in the presence of chemical substance/The level of expressed mRNA in the absence of chemical substance (yeast gene YDR516C): 5.2
level of expressed mRNA in the presence/in the absence of chemical substance (yeast gene YEL063C): 1.7
level of expressed mRNA in the presence/in the absence of chemical substance (yeast gene YER015W): 0.9
The level of expressed mRNA in the presence of chemical substance/The level of expressed mRNA in the absence of chemical substance (yeast gene YER026C): 1.5
The level of expressed mRNA in the presence of chemical substance/The level of expressed mRNA in the absence of chemical substance (yeast gene YER053C): 3.9
The level of expressed mRNA in the presence of chemical substance/The level of expressed mRNA in the absence of chemical substance (yeast gene YER069W): 10.4
level of expressed mRNA in the presence/in the absence of chemical substance (yeast gene YER081W): 1.1
The level of expressed mRNA in the presence of chemical substance/The level of expressed mRNA in the absence of chemical substance (yeast gene YER096W): 3.5
level of expressed mRNA in the presence/in the absence of chemical substance (yeast gene YER120W): 0.9
The level of expressed mRNA in the presence of chemical substance/The level of expressed mRNA in the absence of chemical substance (yeast gene YER178W): 1.3
level of expressed mRNA in the presence/in the absence of chemical substance (yeast gene YFL011W): 1.6
The level of expressed mRNA in the presence of chemical substance/The level of expressed mRNA in the absence of chemical substance (yeast gene YFL014W): 5.8
The level of expressed mRNA in the presence of chemical substance/The level of expressed mRNA in the absence of chemical substance (yeast gene YFL030W): 4.9
The level of expressed mRNA in the presence of chemical substance/The level of expressed mRNA in the absence of chemical substance (yeast gene YFL031W): 0.7
The level of expressed mRNA in the presence of chemical substance/The level of expressed mRNA in the absence of chemical substance (yeast gene YFL056C): 31.3
The level of expressed mRNA in the presence of chemical substance/The level of expressed mRNA in the absence of chemical substance (yeast gene YFL057C): 46.1
The level of expressed mRNA in the presence of chemical substance/The level of expressed mRNA in the absence of chemical substance (yeast gene YFR047C): 1.5
level of expressed mRNA in the presence/in the absence of chemical substance (yeast gene YGL012W): 0.9
The level of expressed mRNA in the presence of chemical substance/The level of expressed mRNA in the absence of chemical substance (yeast gene YGL022W): 0.4
level of expressed mRNA in the presence/in the absence of chemical substance (yeast gene YGL115W): 1.2
The level of expressed mRNA in the presence of chemical substance/The level of expressed mRNA in the absence of chemical substance (yeast gene YGL126W): 0.7
The level of expressed mRNA in the presence of chemical substance/The level of expressed mRNA in the absence of chemical substance (yeast gene YGL202W): 1.7
level of expressed mRNA in the presence/in the absence of chemical substance (yeast gene YGL205W): 0.6
The level of expressed mRNA in the presence of chemical substance/The level of expressed mRNA in the absence of chemical substance (yeast gene YGL209W): 0.4
The level of expressed mRNA in the presence of chemical substance/The level of expressed mRNA in the absence of chemical substance (yeast gene YGL248W): 2.9
The level of expressed mRNA in the presence of chemical substance/The level of expressed mRNA in the absence of chemical substance (yeast gene YGL252C): 1.7
The level of expressed mRNA in the presence of chemical substance/The level of expressed mRNA in the absence of chemical substance (yeast gene YGR037C): 1.4
The level of expressed mRNA in the presence of chemical substance/The level of expressed mRNA in the absence of chemical substance (yeast gene YGR055W): 2.4
level of expressed mRNA in the presence/in the absence of chemical substance (yeast gene YGR096W): 0.8
level of expressed mRNA in the presence/in the absence of chemical substance (yeast gene YGR191W): 0.7
The level of expressed mRNA in the presence of chemical substance/The level of expressed mRNA in the absence of chemical substance (yeast gene YGR194C): 2.1
level of expressed mRNA in the presence/in the absence of chemical substance (yeast gene YGR204W): 2.3
The level of expressed mRNA in the presence of chemical substance/The level of expressed mRNA in the absence of chemical substance (yeast gene YGR256W): 2.5
The level of expressed mRNA in the presence of chemical substance/The level of expressed mRNA in the absence of chemical substance (yeast gene YGR282C): 0.8
level of expressed mRNA in the presence/in the absence of chemical substance (yeast gene YGR288W): 2.6
level of expressed mRNA in the presence/in the absence of chemical substance (yeast gene YHR025W): 0.4
The level of expressed mRNA in the presence of chemical substance/The level of expressed mRNA in the absence of chemical substance (yeast gene YHR111W): 4.2
level of expressed mRNA in the presence/in the absence of chemical substance (yeast gene YHR123W): 1.1
The level of expressed mRNA in the presence of chemical substance/The level of expressed mRNA in the absence of chemical substance (yeast gene YHR137W): 0.9
The level of expressed mRNA in the presence of chemical substance/The level of expressed mRNA in the absence of chemical substance (yeast gene YHR174W): 1.5
The level of expressed mRNA in the presence of chemical substance/The level of expressed mRNA in the absence of chemical substance (yeast gene YHR176W): 6.4
level of expressed mRNA in the presence/in the absence of chemical substance (yeast gene YHR210C): 0.9
level of expressed mRNA in the presence/in the absence of chemical substance (yeast gene YIL006W): 1.1
The level of expressed mRNA in the presence of chemical substance/The level of expressed mRNA in the absence of chemical substance (yeast gene YIL045W): 3.2
The level of expressed mRNA in the presence of chemical substance/The level of expressed mRNA in the absence of chemical substance (yeast gene YIL107C): 3.5
The level of expressed mRNA in the presence of chemical substance/The level of expressed mRNA in the absence of chemical substance (yeast gene YIL154C): 1.0
The level of expressed mRNA in the presence of chemical substance/The level of expressed mRNA in the absence of chemical substance (yeast gene YIL155C): 2.9
The level of expressed mRNA in the presence of chemical substance/The level of expressed mRNA in the absence of chemical substance (yeast gene YIL167W): 12.7
The level of expressed mRNA in the presence of chemical substance/The level of expressed mRNA in the absence of chemical substance (yeast gene YIL172C): 7.1
The level of expressed mRNA in the presence of chemical substance/The level of expressed mRNA in the absence of chemical substance (yeast gene YIR034C): 3.5
The level of expressed mRNA in the presence of chemical substance/The level of expressed mRNA in the absence of chemical substance (yeast gene YIR036C): 1.9
The level of expressed mRNA in the presence of chemical substance/The level of expressed mRNA in the absence of chemical substance (yeast gene YJL031C): 3.6
The level of expressed mRNA in the presence of chemical substance/The level of expressed mRNA in the absence of chemical substance (yeast gene YJL068C): 3.1
The level of expressed mRNA in the presence of chemical substance/The level of expressed mRNA in the absence of chemical substance (yeast gene YJL088W): 4.1
The level of expressed mRNA in the presence of chemical substance/The level of expressed mRNA in the absence of chemical substance (yeast gene YJL099W): 3.1
level of expressed mRNA in the presence/in the absence of chemical substance (yeast gene YJL121C): 0.4
level of expressed mRNA in the presence/in the absence of chemical substance (yeast gene YJL167W): 0.9
The level of expressed mRNA in the presence of chemical substance/The level of expressed mRNA in the absence of chemical substance (yeast gene YJL172W): 1.9
The level of expressed mRNA in the presence of chemical substance/The level of expressed mRNA in the absence of chemical substance (yeast gene YJL219W): 2.3
level of expressed mRNA in the presence/in the absence of chemical substance (yeast gene YJR077C): 0.7
The level of expressed mRNA in the presence of chemical substance/The level of expressed mRNA in the absence of chemical substance (yeast gene YJR137C): 4.8
